{"source": "PubChem BioAssay (NCI)", "assay_in_all_cases": "NCI-60 cell line screen, 48 h", "key": {"786-0 renal": {"test_system": "786-0 renal"}, "A498 renal": {"test_system": "A498 renal"}, "CCRF-CEM leukemia": {"test_system": "CCRF-CEM leukemia"}, "COLO 205 colon": {"test_system": "COLO 205 colon"}, "DU-145 prostate": {"test_system": "DU-145 prostate"}, "EKVX NSCLC": {"test_system": "EKVX NSCLC"}, "HCC-2998 colon": {"test_system": "HCC-2998 colon"}, "HCT-15 colon": {"test_system": "HCT-15 colon"}, "HL-60(TB) leukemia": {"test_system": "HL-60(TB) leukemia"}, "HS 578T breast": {"test_system": "HS 578T breast"}, "K-562 leukemia": {"test_system": "K-562 leukemia"}, "KM12 colon": {"test_system": "KM12 colon"}, "LOX IMVI melanoma": {"test_system": "LOX IMVI melanoma"}, "M14 melanoma": {"test_system": "M14 melanoma"}, "MALME-3M melanoma": {"test_system": "MALME-3M melanoma"}, "MDA-MB-435": {"test_system": "MDA-MB-435"}, "MDA-N": {"test_system": "MDA-N"}, "NCI-H522 lung": {"test_system": "NCI-H522 lung"}, "NCI/ADR-RES ovarian": {"test_system": "NCI/ADR-RES ovarian"}, "OVCAR-4 ovarian": {"test_system": "OVCAR-4 ovarian"}, "SF-295 CNS": {"test_system": "SF-295 CNS"}, "SK-MEL-28 melanoma": {"test_system": "SK-MEL-28 melanoma"}, "SK-OV-3 ovarian": {"test_system": "SK-OV-3 ovarian"}, "SNB-75 CNS": {"test_system": "SNB-75 CNS"}, "TK-10 renal": {"test_system": "TK-10 renal"}, "U251 CNS": {"test_system": "U251 CNS"}, "UACC-257 melanoma": {"test_system": "UACC-257 melanoma"}, "UACC-62 melanoma": {"test_system": "UACC-62 melanoma"}, "A549 NSCLC": {"test_system": "A549 NSCLC"}, "ACHN renal": {"test_system": "ACHN renal"}, "CAKI-1 renal": {"test_system": "CAKI-1 renal"}, "HCT-116 colon": {"test_system": "HCT-116 colon"}, "HOP-62 NSCLC": {"test_system": "HOP-62 NSCLC"}, "HOP-92 NSCLC": {"test_system": "HOP-92 NSCLC"}, "HT29 colon": {"test_system": "HT29 colon"}, "IGROV1 ovarian": {"test_system": "IGROV1 ovarian"}, "MCF7 breast": {"test_system": "MCF7 breast"}, "MDA-MB-231 breast": {"test_system": "MDA-MB-231 breast"}, "MOLT-4 leukemia": {"test_system": "MOLT-4 leukemia"}, "NCI-H226 lung": {"test_system": "NCI-H226 lung"}, "NCI-H23 lung": {"test_system": "NCI-H23 lung"}, "NCI-H460 lung": {"test_system": "NCI-H460 lung"}, "OVCAR-3 ovarian": {"test_system": "OVCAR-3 ovarian"}, "OVCAR-5 ovarian": {"test_system": "OVCAR-5 ovarian"}, "OVCAR-8 ovarian": {"test_system": "OVCAR-8 ovarian"}, "PC-3 prostate": {"test_system": "PC-3 prostate"}, "RPMI-8226 leukemia": {"test_system": "RPMI-8226 leukemia"}, "RXF 393 renal": {"test_system": "RXF 393 renal"}, "SF-268 CNS": {"test_system": "SF-268 CNS"}, "SF-539 CNS": {"test_system": "SF-539 CNS"}, "SK-MEL-2 melanoma": {"test_system": "SK-MEL-2 melanoma"}, "SK-MEL-5 melanoma": {"test_system": "SK-MEL-5 melanoma"}, "SN12C renal": {"test_system": "SN12C renal"}, "SNB-19 CNS": {"test_system": "SNB-19 CNS"}, "SR leukemia": {"test_system": "SR leukemia"}, "SW-620 colon": {"test_system": "SW-620 colon"}}, "note": "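Exposure lasted 48 hours, with cells grown in 96-well plates and compounds tested at five concentrations. GI50 marks 50% less growth. TGI: concentration producing complete growth inhibition.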", "data": [{"smiles": "CC(=O)OC1CCC(OC(C)=O)[C@H]2[C@@H]1[C@@H]1S[C@H]2c2ccccc21", "note": "(stereo partly drawn)", "values": [{"measurement": "GI50", "setting": "786-0 renal", "value": 85.6, "unit": "µg/mL"}, {"measurement": "GI50", "setting": "A498 renal", "value": 43.9, "unit": "µg/mL"}, {"measurement": "GI50", "setting": "CCRF-CEM leukemia", "value": 36.4, "unit": "µg/mL"}, {"measurement": "GI50", "setting": "COLO 205 colon", "value": 59.1, "unit": "µg/mL"}, {"measurement": "GI50", "setting": "DU-145 prostate", "value": 85.3, "unit": "µg/mL"}, {"measurement": "GI50", "setting": "EKVX NSCLC", "value": 54.8, "unit": "µg/mL"}, {"measurement": "GI50", "setting": "HCC-2998 colon", "value": 50.1, "unit": "µg/mL"}, {"measurement": "GI50", "setting": "HCT-15 colon", "value": 93.7, "unit": "µg/mL"}, {"measurement": "GI50", "setting": "HL-60(TB) leukemia", "value": 22, "unit": "µg/mL"}, {"measurement": "GI50", "setting": "HS 578T breast", "value": 76.1, "unit": "µg/mL"}, {"measurement": "GI50", "setting": "K-562 leukemia", "value": 35.9, "unit": "µg/mL"}, {"measurement": "GI50", "setting": "KM12 colon", "value": 49, "unit": "µg/mL"}, {"measurement": "GI50", "setting": "LOX IMVI melanoma", "value": 80.6, "unit": "µg/mL"}, {"measurement": "GI50", "setting": "M14 melanoma", "value": 27.9, "unit": "µg/mL"}, {"measurement": "GI50", "setting": "MALME-3M melanoma", "value": 62.1, "unit": "µg/mL"}, {"measurement": "GI50", "setting": "MDA-MB-435", "value": 21.6, "unit": "µg/mL"}, {"measurement": "GI50", "setting": "MDA-N", "value": 24.2, "unit": "µg/mL"}, {"measurement": "GI50", "setting": "NCI-H522 lung", "value": 32.5, "unit": "µg/mL"}, {"measurement": "GI50", "setting": "NCI/ADR-RES ovarian", "value": 99.2, "unit": "µg/mL"}, {"measurement": "GI50", "setting": "OVCAR-4 ovarian", "value": 31.3, "unit": "µg/mL"}, {"measurement": "GI50", "setting": "SF-295 CNS", "value": 36, "unit": "µg/mL"}, {"measurement": "GI50", "setting": "SK-MEL-28 melanoma", "value": 97.3, "unit": "µg/mL"}, {"measurement": "GI50", "setting": "SK-OV-3 ovarian", "value": 4.09, "unit": "µg/mL"}, {"measurement": "GI50", "setting": "SNB-75 CNS", "value": 48.1, "unit": "µg/mL"}, {"measurement": "GI50", "setting": "TK-10 renal", "value": 35.7, "unit": "µg/mL"}, {"measurement": "GI50", "setting": "U251 CNS", "value": 81.9, "unit": "µg/mL"}, {"measurement": "GI50", "setting": "UACC-257 melanoma", "value": 76.8, "unit": "µg/mL"}, {"measurement": "GI50", "setting": "UACC-62 melanoma", "value": 41.4, "unit": "µg/mL"}]}, {"smiles": "COC(=S)OC1CC(n2cnc3c(=O)[nH]cnc32)OC1CO[Si](C)(C)C(C)(C)C", "note": "(stereo not drawn)", "values": [{"measurement": "TGI", "setting": "786-0 renal", "value": "> 100", "unit": "µM"}, {"measurement": "TGI", "setting": "A498 renal", "value": "> 100", "unit": "µM"}, {"measurement": "TGI", "setting": "A549 NSCLC", "value": "> 100", "unit": "µM"}, {"measurement": "TGI", "setting": "ACHN renal", "value": "> 100", "unit": "µM"}, {"measurement": "TGI", "setting": "CAKI-1 renal", "value": "> 100", "unit": "µM"}, {"measurement": "TGI", "setting": "CCRF-CEM leukemia", "value": "> 100", "unit": "µM"}, {"measurement": "TGI", "setting": "COLO 205 colon", "value": "> 100", "unit": "µM"}, {"measurement": "TGI", "setting": "DU-145 prostate", "value": "> 100", "unit": "µM"}, {"measurement": "TGI", "setting": "EKVX NSCLC", "value": "> 100", "unit": "µM"}, {"measurement": "TGI", "setting": "HCT-116 colon", "value": "> 100", "unit": "µM"}, {"measurement": "TGI", "setting": "HCT-15 colon", "value": "> 100", "unit": "µM"}, {"measurement": "TGI", "setting": "HL-60(TB) leukemia", "value": "> 100", "unit": "µM"}, {"measurement": "TGI", "setting": "HOP-62 NSCLC", "value": "> 100", "unit": "µM"}, {"measurement": "TGI", "setting": "HOP-92 NSCLC", "value": "> 100", "unit": "µM"}, {"measurement": "TGI", "setting": "HS 578T breast", "value": "> 100", "unit": "µM"}, {"measurement": "TGI", "setting": "HT29 colon", "value": "> 100", "unit": "µM"}, {"measurement": "TGI", "setting": "IGROV1 ovarian", "value": "> 100", "unit": "µM"}, {"measurement": "TGI", "setting": "K-562 leukemia", "value": "> 100", "unit": "µM"}, {"measurement": "TGI", "setting": "KM12 colon", "value": "> 100", "unit": "µM"}, {"measurement": "TGI", "setting": "LOX IMVI melanoma", "value": "> 100", "unit": "µM"}, {"measurement": "TGI", "setting": "M14 melanoma", "value": "> 100", "unit": "µM"}, {"measurement": "TGI", "setting": "MALME-3M melanoma", "value": "> 100", "unit": "µM"}, {"measurement": "TGI", "setting": "MCF7 breast", "value": "> 100", "unit": "µM"}, {"measurement": "TGI", "setting": "MDA-MB-231 breast", "value": "> 100", "unit": "µM"}, {"measurement": "TGI", "setting": "MDA-MB-435", "value": "> 100", "unit": "µM"}, {"measurement": "TGI", "setting": "MDA-N", "value": "> 100", "unit": "µM"}, {"measurement": "TGI", "setting": "MOLT-4 leukemia", "value": "> 100", "unit": "µM"}, {"measurement": "TGI", "setting": "NCI-H226 lung", "value": "> 100", "unit": "µM"}, {"measurement": "TGI", "setting": "NCI-H23 lung", "value": "> 100", "unit": "µM"}, {"measurement": "TGI", "setting": "NCI-H460 lung", "value": "> 100", "unit": "µM"}, {"measurement": "TGI", "setting": "NCI-H522 lung", "value": "> 100", "unit": "µM"}, {"measurement": "TGI", "setting": "NCI/ADR-RES ovarian", "value": "> 100", "unit": "µM"}, {"measurement": "TGI", "setting": "OVCAR-3 ovarian", "value": "> 100", "unit": "µM"}, {"measurement": "TGI", "setting": "OVCAR-4 ovarian", "value": "> 100", "unit": "µM"}, {"measurement": "TGI", "setting": "OVCAR-5 ovarian", "value": "> 100", "unit": "µM"}, {"measurement": "TGI", "setting": "OVCAR-8 ovarian", "value": "> 100", "unit": "µM"}, {"measurement": "TGI", "setting": "PC-3 prostate", "value": "> 100", "unit": "µM"}, {"measurement": "TGI", "setting": "RPMI-8226 leukemia", "value": "> 100", "unit": "µM"}, {"measurement": "TGI", "setting": "RXF 393 renal", "value": "> 100", "unit": "µM"}, {"measurement": "TGI", "setting": "SF-268 CNS", "value": "> 100", "unit": "µM"}, {"measurement": "TGI", "setting": "SF-295 CNS", "value": "> 100", "unit": "µM"}, {"measurement": "TGI", "setting": "SF-539 CNS", "value": "> 100", "unit": "µM"}, {"measurement": "TGI", "setting": "SK-MEL-2 melanoma", "value": "> 100", "unit": "µM"}, {"measurement": "TGI", "setting": "SK-MEL-28 melanoma", "value": "> 100", "unit": "µM"}, {"measurement": "TGI", "setting": "SK-MEL-5 melanoma", "value": "> 100", "unit": "µM"}, {"measurement": "TGI", "setting": "SK-OV-3 ovarian", "value": "> 100", "unit": "µM"}, {"measurement": "TGI", "setting": "SN12C renal", "value": "> 100", "unit": "µM"}, {"measurement": "TGI", "setting": "SNB-19 CNS", "value": "> 100", "unit": "µM"}, {"measurement": "TGI", "setting": "SNB-75 CNS", "value": "> 100", "unit": "µM"}, {"measurement": "TGI", "setting": "SR leukemia", "value": "> 100", "unit": "µM"}, {"measurement": "TGI", "setting": "SW-620 colon", "value": "> 100", "unit": "µM"}, {"measurement": "TGI", "setting": "TK-10 renal", "value": "> 100", "unit": "µM"}, {"measurement": "TGI", "setting": "U251 CNS", "value": "> 100", "unit": "µM"}, {"measurement": "TGI", "setting": "UACC-257 melanoma", "value": "> 100", "unit": "µM"}, {"measurement": "TGI", "setting": "UACC-62 melanoma", "value": "> 100", "unit": "µM"}]}]}
